From ChEMBL document CHEMBL3885881, “DrugMatrix”

Organism: Rattus norvegicus
Assay: DrugMatrix - Regimen: Daily Repeat
Format: toxicity, organism-based, Sprague-Dawley
Set-up: regimen Daily Repeat, gender Male, age 6-8 weeks
Conditions: in vivo, po, 739 mg/kg, route oral GAVAGE, dose level High, vehicle 100 % WATER; for ABSOLUTE BASOPHIL / ABSOLUTE EOSINOPHIL / ABSOLUTE LYMPHOCYTE / ABSOLUTE MONOCYTE / ABSOLUTE SEGMENTED NEUTROPHIL / BASOPHIL / EOSINOPHIL / ERYTHROCYTE COUNT / HEMATOCRIT / HEMOGLOBIN / LEUKOCYTE COUNT / LYMPHOCYTE / MEAN CORPUSCULAR HEMOGLOBIN / MEAN CORPUSCULAR HEMOGLOBIN CONCENTRATION / MEAN CORPUSCULAR VOLUME / MONOCYTE / NEUTROPHIL / NUCLEATED RED BLOOD CELLS / PLATELET COUNT: tissue Blood; for ALANINE AMINOTRANSFERASE / ALBUMIN / ALKALINE PHOSPHATASE / ASPARTATE AMINOTRANSFERASE / BLOOD UREA NITROGEN / CARBON DIOXIDE / CHLORIDE / CHOLESTEROL / CREATINE PHOSPHOKINASE / CREATININE / GLUCOSE / LACTATE DEHYDROGENASE / LIPASE / PHOSPHORUS / POTASSIUM / SODIUM / TOTAL BILIRUBIN / TOTAL PROTEIN / URIC ACID: tissue Plasma

C[C@H]1COc2c(N3CCN(C)CC3)c(F)cc3c(=O)c(C(=O)O)cn1c23.C[C@H]1COc2c(N3CCN(C)CC3)c(F)cc3c(=O)c(C(=O)O)cn1c23.O [LEVOFLOXACIN]
ABSOLUTE BASOPHIL (72 h, time 3 day): 0 CELLS/uL
ABSOLUTE EOSINOPHIL (72 h, time 3 day): 60.67 CELLS/uL
ABSOLUTE LYMPHOCYTE (72 h, time 3 day): 15481 CELLS/uL
ABSOLUTE MONOCYTE (72 h, time 3 day): 289.33 CELLS/uL
ABSOLUTE SEGMENTED NEUTROPHIL (72 h, time 3 day): 1169 CELLS/uL
BASOPHIL (72 h, time 3 day): 0%
EOSINOPHIL (72 h, time 3 day): 0.33%
ERYTHROCYTE COUNT (72 h, time 3 day): 5.52 x10E6/uL
HEMATOCRIT (72 h, time 3 day): 35.23%
HEMOGLOBIN (72 h, time 3 day): 13.27 G/DL
LEUKOCYTE COUNT (72 h, time 3 day): 17 x10E3/uL
LYMPHOCYTE (72 h, time 3 day): 91%
MEAN CORPUSCULAR HEMOGLOBIN (72 h, time 3 day): 24.03 pg
MEAN CORPUSCULAR HEMOGLOBIN CONCENTRATION (72 h, time 3 day): 37.67 G/DL
MEAN CORPUSCULAR VOLUME (72 h, time 3 day): 63.8 fL
MONOCYTE (72 h, time 3 day): 1.67%
NEUTROPHIL (72 h, time 3 day): 7%
NUCLEATED RED BLOOD CELLS (72 h, time 3 day): 0 /100WBC
PLATELET COUNT (72 h, time 3 day): 1423.67 x10E3/uL
ALANINE AMINOTRANSFERASE (72 h, time 3 day): 46.33 u/L
ALBUMIN (72 h, time 3 day): 4.1 G/DL
ALKALINE PHOSPHATASE (72 h, time 3 day): 308 u/L
ASPARTATE AMINOTRANSFERASE (72 h, time 3 day): 72.67 u/L
BLOOD UREA NITROGEN (72 h, time 3 day): 16.33 mg/dL
CARBON DIOXIDE (72 h, time 3 day): 26.67 mmol/L
CHLORIDE (72 h, time 3 day): 104.33 MEQ/L
CHOLESTEROL (72 h, time 3 day): 82.33 mg/dL
CREATINE PHOSPHOKINASE (72 h, time 3 day): 201.67 u/L
CREATININE (72 h, time 3 day): 0.14 mg/dL
GLUCOSE (72 h, time 3 day): 154.33 mg/dL
LACTATE DEHYDROGENASE (72 h, time 3 day): 124 u/L
LIPASE (72 h, time 3 day): 8.67 u/L
PHOSPHORUS (72 h, time 3 day): 11.47 mg/dL
POTASSIUM (72 h, time 3 day): 6.3 MEQ/L
SODIUM (72 h, time 3 day): 146.37 MEQ/L
TOTAL BILIRUBIN (72 h, time 3 day): 0.17 mg/dL
TOTAL PROTEIN (72 h, time 3 day): 5.97 G/DL
URIC ACID (72 h, time 3 day): 1.7 mg/dL
ABSOLUTE BASOPHIL (120 h, time 5 day): 0 CELLS/uL
ABSOLUTE EOSINOPHIL (120 h, time 5 day): 0 CELLS/uL
ABSOLUTE LYMPHOCYTE (120 h, time 5 day): 15118 CELLS/uL
ABSOLUTE MONOCYTE (120 h, time 5 day): 376 CELLS/uL
ABSOLUTE SEGMENTED NEUTROPHIL (120 h, time 5 day): 706 CELLS/uL
BASOPHIL (120 h, time 5 day): 0%
EOSINOPHIL (120 h, time 5 day): 0%
ERYTHROCYTE COUNT (120 h, time 5 day): 6.32 x10E6/uL
HEMATOCRIT (120 h, time 5 day): 38.53%
HEMOGLOBIN (120 h, time 5 day): 14.33 G/DL
LEUKOCYTE COUNT (120 h, time 5 day): 16.2 x10E3/uL
LYMPHOCYTE (120 h, time 5 day): 93.33%
MEAN CORPUSCULAR HEMOGLOBIN (120 h, time 5 day): 22.7 pg
MEAN CORPUSCULAR HEMOGLOBIN CONCENTRATION (120 h, time 5 day): 37.2 G/DL
MEAN CORPUSCULAR VOLUME (120 h, time 5 day): 61.03 fL
MONOCYTE (120 h, time 5 day): 2.33%
NEUTROPHIL (120 h, time 5 day): 4.33%
NUCLEATED RED BLOOD CELLS (120 h, time 5 day): 0.33 /100WBC
PLATELET COUNT (120 h, time 5 day): 1446 x10E3/uL
ALANINE AMINOTRANSFERASE (120 h, time 5 day): 51.67 u/L
ALBUMIN (120 h, time 5 day): 4.27 G/DL
ALKALINE PHOSPHATASE (120 h, time 5 day): 400 u/L
ASPARTATE AMINOTRANSFERASE (120 h, time 5 day): 69.33 u/L
BLOOD UREA NITROGEN (120 h, time 5 day): 16.33 mg/dL
CARBON DIOXIDE (120 h, time 5 day): 25.67 mmol/L
CHLORIDE (120 h, time 5 day): 105.33 MEQ/L
CHOLESTEROL (120 h, time 5 day): 69.67 mg/dL
CREATINE PHOSPHOKINASE (120 h, time 5 day): 212 u/L
CREATININE (120 h, time 5 day): 0.19 mg/dL
GLUCOSE (120 h, time 5 day): 191.33 mg/dL
LACTATE DEHYDROGENASE (120 h, time 5 day): 130.33 u/L
LIPASE (120 h, time 5 day): 9 u/L
PHOSPHORUS (120 h, time 5 day): 14.27 mg/dL
POTASSIUM (120 h, time 5 day): 6.6 MEQ/L
SODIUM (120 h, time 5 day): 147.87 MEQ/L
TOTAL BILIRUBIN (120 h, time 5 day): 0.17 mg/dL
TOTAL PROTEIN (120 h, time 5 day): 6.23 G/DL
URIC ACID (120 h, time 5 day): 2.37 mg/dL
